Results taken from patent publication US20030083324A1, “Photosensitizing ointment” (CeramOptec Industries, Inc., priority 2000, published 2003).

Conditions: especially when diluted with cream to <20% (w/w)
Description: The phototoxic compounds can be mixed with the carrier in a solubilized form.

COCCO [2-methoxy ethanol]
toxicity to human skin: no toxicity
